In ChEMBL document CHEMBL3991601, “The target landscape of clinical kinase drugs” (Science, 2017) one finds Kd data, which are given here for ten compounds.

The target of experiment [1] is T1, Activin receptor type-1 (Homo sapiens, UniProt Q04771).
T1 sequence (Q04771 whole entry): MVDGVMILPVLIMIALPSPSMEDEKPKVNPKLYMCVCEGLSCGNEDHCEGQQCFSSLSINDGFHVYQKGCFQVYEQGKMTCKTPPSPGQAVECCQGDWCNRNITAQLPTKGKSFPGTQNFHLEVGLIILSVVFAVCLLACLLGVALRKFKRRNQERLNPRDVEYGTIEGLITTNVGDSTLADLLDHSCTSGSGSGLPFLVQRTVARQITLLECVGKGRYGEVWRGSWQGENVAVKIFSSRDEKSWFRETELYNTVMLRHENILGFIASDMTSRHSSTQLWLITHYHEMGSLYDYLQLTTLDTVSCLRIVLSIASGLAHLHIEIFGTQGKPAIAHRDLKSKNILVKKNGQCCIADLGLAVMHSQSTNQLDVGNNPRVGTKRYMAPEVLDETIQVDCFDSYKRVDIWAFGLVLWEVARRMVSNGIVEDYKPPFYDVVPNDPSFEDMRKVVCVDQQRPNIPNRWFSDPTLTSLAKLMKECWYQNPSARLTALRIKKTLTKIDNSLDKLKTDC

Experiment [2] concerns the target T2, AarF domain-containing protein kinase 1 (Homo sapiens, UniProt Q86TW2).
T2 sequence (Q86TW2 whole entry): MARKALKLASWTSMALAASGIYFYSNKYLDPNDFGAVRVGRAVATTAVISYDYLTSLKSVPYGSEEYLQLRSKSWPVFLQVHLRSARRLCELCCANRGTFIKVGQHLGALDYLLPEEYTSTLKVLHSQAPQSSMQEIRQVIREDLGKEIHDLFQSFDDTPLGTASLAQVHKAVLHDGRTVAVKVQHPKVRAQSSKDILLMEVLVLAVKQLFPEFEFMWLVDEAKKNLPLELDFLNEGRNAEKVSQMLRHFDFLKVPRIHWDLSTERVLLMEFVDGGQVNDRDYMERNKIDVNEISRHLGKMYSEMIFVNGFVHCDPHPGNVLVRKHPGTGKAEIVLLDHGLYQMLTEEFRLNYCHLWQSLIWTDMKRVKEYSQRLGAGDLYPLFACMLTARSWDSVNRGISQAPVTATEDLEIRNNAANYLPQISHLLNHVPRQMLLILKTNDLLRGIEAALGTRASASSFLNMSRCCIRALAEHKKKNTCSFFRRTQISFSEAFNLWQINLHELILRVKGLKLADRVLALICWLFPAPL

Experiment [3] addresses T3, Bone morphogenetic protein receptor type-2 (Homo sapiens, UniProt Q13873).
T3 sequence (Q13873 whole entry): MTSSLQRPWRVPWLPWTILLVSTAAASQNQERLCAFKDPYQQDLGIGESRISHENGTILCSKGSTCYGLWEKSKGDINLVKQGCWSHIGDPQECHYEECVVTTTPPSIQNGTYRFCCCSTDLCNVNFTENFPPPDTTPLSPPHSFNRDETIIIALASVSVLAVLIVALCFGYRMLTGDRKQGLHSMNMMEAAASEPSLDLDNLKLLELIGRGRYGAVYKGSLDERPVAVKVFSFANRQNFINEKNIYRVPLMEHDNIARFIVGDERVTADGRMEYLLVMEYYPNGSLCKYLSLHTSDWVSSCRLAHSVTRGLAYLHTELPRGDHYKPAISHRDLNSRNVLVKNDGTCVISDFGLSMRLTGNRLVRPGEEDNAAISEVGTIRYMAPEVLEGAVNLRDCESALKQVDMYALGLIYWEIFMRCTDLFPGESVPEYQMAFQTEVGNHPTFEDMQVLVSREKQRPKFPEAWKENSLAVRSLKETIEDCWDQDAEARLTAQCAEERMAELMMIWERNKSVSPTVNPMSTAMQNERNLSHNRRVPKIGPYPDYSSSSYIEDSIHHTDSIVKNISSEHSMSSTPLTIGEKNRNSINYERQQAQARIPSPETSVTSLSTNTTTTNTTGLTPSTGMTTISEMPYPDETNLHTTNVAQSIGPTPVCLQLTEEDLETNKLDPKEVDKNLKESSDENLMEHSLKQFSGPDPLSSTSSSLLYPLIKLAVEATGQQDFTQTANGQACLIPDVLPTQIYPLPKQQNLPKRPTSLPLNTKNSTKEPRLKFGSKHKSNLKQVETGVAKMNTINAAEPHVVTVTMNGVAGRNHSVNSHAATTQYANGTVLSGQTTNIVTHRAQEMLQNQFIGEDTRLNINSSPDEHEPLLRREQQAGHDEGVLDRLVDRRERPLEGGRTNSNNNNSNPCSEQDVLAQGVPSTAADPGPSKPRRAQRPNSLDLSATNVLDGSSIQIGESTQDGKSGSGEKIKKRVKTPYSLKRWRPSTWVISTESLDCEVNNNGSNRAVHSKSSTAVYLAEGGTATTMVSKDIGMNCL

For experiment [4], the target named is Serine/threonine-protein kinase MRCK beta (Homo sapiens, UniProt Q9Y5S2).
For experiment [5], the target named is Casein kinase II subunit alpha' (Homo sapiens, UniProt P19784).
Experiment [6] concerns the target Ephrin type-A receptor 4 (Homo sapiens, UniProt P54764).
Experiment [7] concerns the target Glycogen synthase kinase-3 alpha (Homo sapiens, UniProt P49840).
Experiment [8] has as its target Midasin (Homo sapiens, UniProt Q9NU22).
The target in experiment [9] is Serine/threonine-protein kinase 16 (Homo sapiens, UniProt O75716).
Experiment [10] deals with T4, Serine/threonine-protein kinase ULK3 (Homo sapiens, UniProt Q6PHR2).
T4 sequence (Q6PHR2 whole entry): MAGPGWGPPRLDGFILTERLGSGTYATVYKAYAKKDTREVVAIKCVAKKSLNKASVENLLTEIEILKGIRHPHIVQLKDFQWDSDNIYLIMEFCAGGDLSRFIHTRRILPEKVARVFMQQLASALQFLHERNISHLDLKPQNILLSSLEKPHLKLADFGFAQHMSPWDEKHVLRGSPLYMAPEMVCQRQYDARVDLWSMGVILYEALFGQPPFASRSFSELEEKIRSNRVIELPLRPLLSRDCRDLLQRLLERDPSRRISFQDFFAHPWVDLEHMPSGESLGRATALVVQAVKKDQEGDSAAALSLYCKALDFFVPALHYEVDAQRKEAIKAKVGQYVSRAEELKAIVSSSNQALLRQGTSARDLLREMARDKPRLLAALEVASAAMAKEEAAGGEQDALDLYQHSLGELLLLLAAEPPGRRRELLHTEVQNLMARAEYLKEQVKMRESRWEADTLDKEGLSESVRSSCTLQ

Active and inactive are the calls of the source. Rule as the data show it, for most assays here: actives have a measured Kd and inactives only a lower limit. Bounds are passed on as bounds.
Also: in the data inactive means no Kd found up to 30 µM.

Chain of Serine/threonine-protein kinase MRCK beta (Q9Y5S2 whole entry): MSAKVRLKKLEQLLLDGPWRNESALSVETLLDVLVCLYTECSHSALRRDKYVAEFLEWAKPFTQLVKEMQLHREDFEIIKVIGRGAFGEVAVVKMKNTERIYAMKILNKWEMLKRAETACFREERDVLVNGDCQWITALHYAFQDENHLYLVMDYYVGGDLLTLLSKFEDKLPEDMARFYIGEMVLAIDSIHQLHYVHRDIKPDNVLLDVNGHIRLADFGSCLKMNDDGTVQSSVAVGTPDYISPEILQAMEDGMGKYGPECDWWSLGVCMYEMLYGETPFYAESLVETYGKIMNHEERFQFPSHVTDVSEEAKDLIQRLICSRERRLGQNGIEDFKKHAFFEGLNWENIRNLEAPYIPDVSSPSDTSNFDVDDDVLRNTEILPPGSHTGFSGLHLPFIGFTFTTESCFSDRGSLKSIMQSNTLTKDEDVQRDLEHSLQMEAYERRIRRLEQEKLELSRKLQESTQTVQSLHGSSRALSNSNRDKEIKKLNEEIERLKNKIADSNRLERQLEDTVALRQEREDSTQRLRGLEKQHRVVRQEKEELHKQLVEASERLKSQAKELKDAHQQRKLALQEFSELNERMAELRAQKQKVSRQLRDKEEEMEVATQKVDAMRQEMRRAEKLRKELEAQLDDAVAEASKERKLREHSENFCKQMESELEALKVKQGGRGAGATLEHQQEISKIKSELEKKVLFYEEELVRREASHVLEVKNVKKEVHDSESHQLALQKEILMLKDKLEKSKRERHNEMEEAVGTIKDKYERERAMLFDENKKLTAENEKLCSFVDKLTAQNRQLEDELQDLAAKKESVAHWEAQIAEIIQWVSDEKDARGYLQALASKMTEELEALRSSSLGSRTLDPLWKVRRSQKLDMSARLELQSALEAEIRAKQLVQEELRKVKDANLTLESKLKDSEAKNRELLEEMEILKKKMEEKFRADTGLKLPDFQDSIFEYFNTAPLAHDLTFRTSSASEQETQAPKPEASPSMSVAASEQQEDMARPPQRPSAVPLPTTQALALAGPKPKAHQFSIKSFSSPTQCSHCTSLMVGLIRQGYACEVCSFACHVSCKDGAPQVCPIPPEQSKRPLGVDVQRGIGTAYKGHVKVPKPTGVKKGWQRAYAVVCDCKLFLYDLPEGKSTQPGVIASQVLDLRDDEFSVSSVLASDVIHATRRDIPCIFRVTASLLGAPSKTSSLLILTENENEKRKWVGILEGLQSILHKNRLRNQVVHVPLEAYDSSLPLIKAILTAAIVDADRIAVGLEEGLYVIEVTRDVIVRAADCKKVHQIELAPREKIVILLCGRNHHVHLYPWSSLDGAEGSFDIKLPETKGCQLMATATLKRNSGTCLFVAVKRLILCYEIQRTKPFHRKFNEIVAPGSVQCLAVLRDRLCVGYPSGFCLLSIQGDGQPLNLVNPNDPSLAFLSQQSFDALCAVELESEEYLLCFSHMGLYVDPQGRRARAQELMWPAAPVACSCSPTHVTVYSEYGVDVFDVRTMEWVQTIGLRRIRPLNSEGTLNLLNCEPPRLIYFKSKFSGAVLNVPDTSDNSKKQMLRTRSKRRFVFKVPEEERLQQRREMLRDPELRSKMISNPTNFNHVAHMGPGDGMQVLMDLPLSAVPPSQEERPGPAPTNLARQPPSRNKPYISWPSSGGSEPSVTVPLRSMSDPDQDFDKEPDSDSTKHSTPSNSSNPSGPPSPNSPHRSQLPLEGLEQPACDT
Chain of Casein kinase II subunit alpha' (P19784 whole entry): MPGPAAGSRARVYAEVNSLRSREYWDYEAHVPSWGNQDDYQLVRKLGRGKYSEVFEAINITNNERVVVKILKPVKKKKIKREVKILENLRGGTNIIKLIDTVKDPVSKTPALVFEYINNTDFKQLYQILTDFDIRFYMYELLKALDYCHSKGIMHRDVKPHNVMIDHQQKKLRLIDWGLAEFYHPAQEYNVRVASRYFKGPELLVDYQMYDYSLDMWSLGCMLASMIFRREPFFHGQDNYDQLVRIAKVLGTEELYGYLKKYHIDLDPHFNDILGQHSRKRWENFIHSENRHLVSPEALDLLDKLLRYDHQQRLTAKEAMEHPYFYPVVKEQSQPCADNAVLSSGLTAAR
Chain of Glycogen synthase kinase-3 alpha (P49840 whole entry): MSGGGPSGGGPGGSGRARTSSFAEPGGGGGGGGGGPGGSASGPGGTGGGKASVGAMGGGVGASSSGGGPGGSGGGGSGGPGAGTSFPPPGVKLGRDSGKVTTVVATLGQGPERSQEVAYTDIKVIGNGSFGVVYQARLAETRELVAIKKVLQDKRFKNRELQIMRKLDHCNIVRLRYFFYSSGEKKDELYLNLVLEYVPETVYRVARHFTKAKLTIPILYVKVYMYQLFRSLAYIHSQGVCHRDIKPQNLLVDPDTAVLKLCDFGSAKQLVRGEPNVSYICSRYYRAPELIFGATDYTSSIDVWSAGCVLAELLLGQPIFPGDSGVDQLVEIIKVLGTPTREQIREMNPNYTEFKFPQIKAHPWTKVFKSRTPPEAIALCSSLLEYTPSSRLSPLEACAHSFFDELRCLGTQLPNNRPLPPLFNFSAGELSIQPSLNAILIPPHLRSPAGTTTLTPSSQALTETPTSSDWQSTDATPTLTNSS
Chain of Serine/threonine-protein kinase 16 (O75716 whole entry): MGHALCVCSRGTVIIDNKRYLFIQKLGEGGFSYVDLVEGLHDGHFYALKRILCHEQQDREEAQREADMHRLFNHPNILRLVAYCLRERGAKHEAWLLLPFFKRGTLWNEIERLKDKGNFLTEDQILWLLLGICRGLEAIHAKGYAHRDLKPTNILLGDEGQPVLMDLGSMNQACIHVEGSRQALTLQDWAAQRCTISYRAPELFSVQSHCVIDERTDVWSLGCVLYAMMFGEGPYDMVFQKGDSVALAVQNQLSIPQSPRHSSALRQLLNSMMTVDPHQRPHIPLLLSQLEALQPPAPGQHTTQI
Chain of Ephrin type-A receptor 4 (P54764 whole entry): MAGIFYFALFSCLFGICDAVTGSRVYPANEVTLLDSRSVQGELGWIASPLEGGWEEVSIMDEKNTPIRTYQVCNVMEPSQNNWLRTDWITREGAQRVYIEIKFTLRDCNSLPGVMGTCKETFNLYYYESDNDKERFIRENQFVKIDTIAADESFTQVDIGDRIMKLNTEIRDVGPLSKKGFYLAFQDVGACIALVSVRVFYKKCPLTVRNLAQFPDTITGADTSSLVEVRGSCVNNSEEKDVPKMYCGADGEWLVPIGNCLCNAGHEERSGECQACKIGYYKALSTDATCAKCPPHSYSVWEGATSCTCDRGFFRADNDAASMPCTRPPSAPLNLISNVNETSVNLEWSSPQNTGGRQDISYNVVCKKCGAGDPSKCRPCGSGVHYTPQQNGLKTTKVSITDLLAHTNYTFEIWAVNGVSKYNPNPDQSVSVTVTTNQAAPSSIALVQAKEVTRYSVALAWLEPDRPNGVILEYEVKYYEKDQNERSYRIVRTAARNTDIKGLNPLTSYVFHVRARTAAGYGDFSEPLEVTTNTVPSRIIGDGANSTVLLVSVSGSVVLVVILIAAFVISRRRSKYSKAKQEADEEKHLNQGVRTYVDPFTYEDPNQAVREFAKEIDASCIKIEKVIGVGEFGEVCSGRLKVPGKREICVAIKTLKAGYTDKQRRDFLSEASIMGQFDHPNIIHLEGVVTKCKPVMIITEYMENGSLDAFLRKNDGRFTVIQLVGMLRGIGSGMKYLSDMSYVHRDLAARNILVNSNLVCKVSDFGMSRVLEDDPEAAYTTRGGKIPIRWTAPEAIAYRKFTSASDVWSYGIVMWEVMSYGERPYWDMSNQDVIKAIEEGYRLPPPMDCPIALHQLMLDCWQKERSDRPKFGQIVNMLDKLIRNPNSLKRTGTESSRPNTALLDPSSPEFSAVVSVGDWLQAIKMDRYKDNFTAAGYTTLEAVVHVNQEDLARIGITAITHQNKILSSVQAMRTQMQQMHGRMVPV

The Kd is the equilibrium constant for the complex coming apart. Take `FC(F)(F)c1ccc(/C=C/c2nc(COc3ccc(CCCCn4ccnn4)cc3)co2)cc1` [MUBRITINIB]: the Kd in [1], in experiment [2], in experiment [3], in [4], in [5] and in [6] was > 30 µM (inactive) in each case. Moreover, the Kd in experiment [7], in experiment [8], in [9] and in experiment [10] was > 30 µM (inactive) in each case.

In the case of `COc1ncc(-c2ccc3nccc(-c4ccnnc4)c3c2)cc1NS(=O)(=O)c1ccc(F)cc1F` [OMIPALISIB], the Kd in experiment [1], in experiment [2], in experiment [3], in experiment [4], in experiment [5] and in experiment [6] was > 30 µM (inactive) throughout. In addition, the Kd in experiment [7], in experiment [8], in experiment [9] and in [10] was > 30 µM (inactive) each time.

For `CCOc1cc2ncc(C#N)c(Nc3ccc(F)c(Cl)c3)c2cc1NC(=O)/C=C/CN(C)C` [PELITINIB], the Kd in [1], in experiment [2], in [3], in experiment [4], in experiment [5] and in experiment [6] was > 30 µM (inactive) throughout. Moreover, the Kd in [7], in experiment [8], in experiment [9] and in [10] was > 30 µM (inactive) each time.

Consider `CCCCCCCCCCCCCCCCCCOP(=O)([O-])OC1CC[N+](C)(C)CC1` [PERIFOSINE], for which the Kd in [1], in [2], in [3], in experiment [4], in experiment [5] and in [6] was > 30 µM (inactive) throughout. Also, the Kd in [7], in experiment [8], in experiment [9] and in experiment [10] was > 30 µM (inactive) each time.

For `Cc1nc(Nc2n[nH]c3c2CN(C(=O)N[C@H](CN(C)C)c2ccccc2)C3(C)C)c2sccc2n1` [PF-03758309], the Kd in experiment [1], in experiment [2], in experiment [3], in experiment [4], in [5] and in experiment [6] was > 30 µM (inactive) throughout. Besides, the Kd in experiment [7] was 2.09 µM (active); in experiment [8], > 30 µM (inactive); in [9], 5.45 µM (active); in experiment [10], 0.626 µM (active).

Take `Cc1cnc(NC(=O)Nc2cc(Br)c(C)cc2OC[C@@H]2CNCCO2)cn1` [RABUSERTIB]: the Kd in [1], in [2], in experiment [3], in experiment [4], in experiment [5] and in experiment [6] was > 30 µM (inactive) throughout. Besides, the Kd in [7], in experiment [8], in [9] and in experiment [10] was > 30 µM (inactive) in each case.

Consider `CO[C@H]1C[C@@H]2CC[C@@H](C)[C@@](O)(O2)C(=O)C(=O)N2CCCC[C@H]2C(=O)O[C@H]([C@H](C)C[C@@H]2CC[C@@H](OP(C)(C)=O)[C@H](OC)C2)CC(=O)[C@H](C)/C=C(\C)[C@@H](O)[C@@H](OC)C(=O)[C@H](C)C[C@H](C)/C=C/C=C/C=C/1C` [RIDAFOROLIMUS], for which the Kd in [1], in [2], in [3], in experiment [4], in experiment [5] and in experiment [6] was > 30 µM (inactive) throughout. Also, the Kd in experiment [7], in experiment [8], in experiment [9] and in [10] was > 30 µM (inactive) in each case.

As for `N#CC1(c2ccc(NC(=O)c3cccnc3NCc3ccncc3)cc2)CCCC1` [RIVOCERANIB], the Kd in experiment [1], in experiment [2], in experiment [3], in experiment [4], in [5] and in [6] was > 30 µM (inactive) in each case. For the same compound, the Kd in experiment [7], in [8], in experiment [9] and in experiment [10] was > 30 µM (inactive) in each case.

`O=c1[nH]ccc2cc(OC3CCNCC3)ccc12` [SAR-407899 FREE BASE]: the Kd in [1] is > 30 µM (inactive); in [2], > 30 µM (inactive); in experiment [3], > 30 µM (inactive); in [4], 0.016 µM (active); in experiment [5] it was > 30 µM (inactive); in [6], > 30 µM (inactive). Also, the Kd in experiment [7], in experiment [8], in experiment [9] and in experiment [10] was > 30 µM (inactive) throughout.

`CN1CCN(CCOc2cc(OC3CCOCC3)c3c(Nc4c(Cl)ccc5c4OCO5)ncnc3c2)CC1` [SARACATINIB]: the Kd in [1] was 0.004 µM (active); in experiment [2], > 30 µM (inactive); in experiment [3], > 30 µM (inactive); in experiment [4], > 30 µM (inactive); in experiment [5], > 30 µM (inactive); in experiment [6], 0.917 µM (active). In addition, the Kd in [7], in experiment [8], in experiment [9] and in experiment [10] was > 30 µM (inactive) each time.
